From ChEMBL document CHEMBL1938325, “Synthesis of new 5,6-dihydrobenzo[h]quinazoline 2,4-diamino substituted and antiplatelet/antiphlogistic activities evaluation” (Bioorg Med Chem Lett, 2012)
Activity calls are given as the source filed them. The rule behind the calls is not given here.

Columns and labels:
[1] = target: Prostaglandin G/H synthase 1 (Homo sapiens) (UniProt P23219); assay: Inhibition of COX-1 at 1 mM
[2] = Antiplatelet activity against guinea pig platelet-rich plasma assessed as inhibition of arachidonic acid-induced platelet aggregation measured within 3 hrs by turbidimetric method; type: functional; details: Cavia porcellus
Mus musculus [3] = assay: Toxicity in Swiss mouse assessed as effect on spontaneous locomotion activity at 25 to 100 mg/kg, po by classic open filed test; type: organism-based; parameters: dose 25-100 mg/kg, route oral; details: in vivo
Mus musculus [4] = assay: Antinociceptive activity in Swiss mouse assessed as inhibition of acetic acid induced writhing at 100 mg/kg, po measured every 5 mins for 45 mins; type: functional
Mus musculus [5] = assay: Antinociceptive activity in Swiss mouse assessed as inhibition of acetic acid induced writhing at 50 mg/kg, po measured every 5 mins for 45 mins; type: functional
[6] = target: T1, Prostaglandin G/H synthase 2 (Homo sapiens) (UniProt P35354); assay: Inhibition of COX-2 at 1 mM
T1 sequence (whole entry): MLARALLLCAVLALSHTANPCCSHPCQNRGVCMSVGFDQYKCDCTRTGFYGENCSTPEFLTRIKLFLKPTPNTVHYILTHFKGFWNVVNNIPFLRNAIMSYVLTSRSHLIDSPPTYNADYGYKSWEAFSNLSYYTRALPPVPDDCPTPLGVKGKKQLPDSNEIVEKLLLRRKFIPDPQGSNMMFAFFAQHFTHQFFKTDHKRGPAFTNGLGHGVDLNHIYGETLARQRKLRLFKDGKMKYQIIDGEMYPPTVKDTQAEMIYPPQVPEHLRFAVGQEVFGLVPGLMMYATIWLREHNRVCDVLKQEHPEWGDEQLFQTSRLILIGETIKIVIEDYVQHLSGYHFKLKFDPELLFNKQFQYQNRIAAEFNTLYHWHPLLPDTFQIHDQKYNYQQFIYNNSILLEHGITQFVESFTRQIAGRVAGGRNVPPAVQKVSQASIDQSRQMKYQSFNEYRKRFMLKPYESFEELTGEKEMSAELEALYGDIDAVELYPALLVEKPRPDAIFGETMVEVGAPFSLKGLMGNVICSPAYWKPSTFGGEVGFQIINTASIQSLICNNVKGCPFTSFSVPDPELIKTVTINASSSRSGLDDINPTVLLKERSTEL

Platelet [7] = assay: Antiplatelet activity against guinea pig platelet-rich plasma assessed as inhibition of U46619-induced platelet aggregation up to 500 uM measured within 3 hrs by turbidimetric method; type: functional; details: Cavia porcellus
Rattus norvegicus [8] = assay: Antiphlogistic activity in Wistar rat assessed as inhibition of carrageenan-induced paw oedema at 100 mg/kg, po; type: functional
Mus musculus [9] = assay: Toxicity in Swiss mouse assessed as sedation at 25 to 100 mg/kg, po; type: organism-based; parameters: dose 25-100 mg/kg, route oral; details: in vivo
[10] = Antiplatelet activity against guinea pig platelet-rich plasma assessed as inhibition of ADP-induced platelet aggregation measured within 3 hrs by turbidimetric method; type: functional; details: Cavia porcellus
Mus musculus [11] = assay: Antinociceptive activity in Swiss mouse assessed as inhibition of acetic acid induced writhing at 25 mg/kg, po measured every 5 mins for 45 mins; type: functional
Rattus norvegicus [12] = assay: Antiphlogistic activity in Wistar rat assessed as inhibition of carrageenan-induced paw oedema at 50 mg/kg, po; type: functional
Rattus norvegicus [13] = assay: Antiphlogistic activity in Wistar rat assessed as inhibition of carrageenan-induced paw oedema at 10 mg/kg, po; type: functional
Platelet [14] = assay: Antiplatelet activity against guinea pig platelet-rich plasma assessed as inhibition of ADP-induced platelet aggregation up to 500 uM measured within 3 hrs by turbidimetric method; type: functional; details: Cavia porcellus
[15] = Antiplatelet activity against guinea pig platelet-rich plasma assessed as inhibition of U46619-induced platelet aggregation measured within 3 hrs by turbidimetric method; type: functional; details: Cavia porcellus
Rattus norvegicus [16] = assay: Antiphlogistic activity in Wistar rat assessed as inhibition of carrageenan-induced paw oedema at 25 mg/kg, po; type: functional

Sequence of Prostaglandin G/H synthase 1 (Homo sapiens) (P23219 whole entry): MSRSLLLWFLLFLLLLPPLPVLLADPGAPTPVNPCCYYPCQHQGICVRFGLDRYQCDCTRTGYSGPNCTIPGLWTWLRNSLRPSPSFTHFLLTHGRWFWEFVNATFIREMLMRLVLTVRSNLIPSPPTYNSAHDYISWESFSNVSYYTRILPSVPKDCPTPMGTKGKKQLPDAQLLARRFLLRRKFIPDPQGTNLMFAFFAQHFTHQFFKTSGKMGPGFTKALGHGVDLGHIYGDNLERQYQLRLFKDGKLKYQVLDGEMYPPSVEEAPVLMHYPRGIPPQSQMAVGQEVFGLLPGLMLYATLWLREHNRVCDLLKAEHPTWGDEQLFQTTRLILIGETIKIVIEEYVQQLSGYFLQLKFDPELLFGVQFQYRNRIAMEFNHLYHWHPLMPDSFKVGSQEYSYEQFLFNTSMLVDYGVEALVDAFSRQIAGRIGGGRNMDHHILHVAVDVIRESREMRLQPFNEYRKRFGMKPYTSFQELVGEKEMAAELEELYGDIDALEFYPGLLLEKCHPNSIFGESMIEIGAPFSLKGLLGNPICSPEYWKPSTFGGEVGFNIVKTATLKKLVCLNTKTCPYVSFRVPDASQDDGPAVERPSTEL

Row | SMILES | Imax [1] [%] | IC50 [2] [µM] | Imax [6] [%] | IC50 [10] [µM] | IC50 [15] [µM] | Activity (Mus musculus [3]) | inhibition in vivo at 100 mg/kg (Mus musculus [4]) [%] | inhibition in vivo at 50 mg/kg (Mus musculus [5]) [%] | inhibition (Platelet [7]) | inhibition in vivo at 100 mg/kg (Rattus norvegicus [8]) [%] | Activity (Mus musculus [9]) | inhibition in vivo at 25 mg/kg (Mus musculus [11]) [%] | inhibition in vivo at 50 mg/kg (Rattus norvegicus [12]) [%] | inhibition in vivo at 10 mg/kg (Rattus norvegicus [13]) [%] | inhibition (Platelet [14]) | inhibition in vivo at 25 mg/kg (Rattus norvegicus [16]) [%]
1 | Nc1nc2c(c(N3CCOCC3)n1)CCc1ccccc1-2 |  | 224 |  | 341 |  |  | 19 |  | inactive | 40 |  |  | 0 |  |  | 
2 | COc1ccc2c(c1)c(CC(=O)O)c(C)n2C(=O)c1ccc(Cl)cc1 [INDOMETHACIN] |  |  |  |  |  |  |  |  |  |  |  |  |  | 45 |  | 
3 | CC(=O)Oc1ccccc1C(=O)O [ASPIRIN] |  | 45 |  | > 500 |  |  |  |  | inactive |  |  |  |  |  |  | 
4 | CNc1nc(Nc2ccccc2)c2c(n1)-c1ccccc1CC2 |  | 105 |  |  |  |  | 54 | 0 | inactive | 5 |  |  |  |  | inactive | 
5 | Nc1nc(NCc2ccccc2)c2c(n1)-c1ccccc1CC2 |  | 200 |  |  |  |  | 62 | 8 | inactive | 23 |  |  |  |  | inactive | 
6 | Nc1nc2c(c(N3CCCC3)n1)CCc1ccccc1-2 |  | 166 |  | 307 |  |  | 30 |  | inactive | 42 |  |  | 42 |  |  | 0
7 | Nc1nc(NCCc2ccccc2)c2c(n1)-c1ccccc1CC2 |  | 89 |  |  |  |  | 54 | 32 | inactive | 19 |  |  | 20 |  | inactive | 

Continued, in another order:

Row | Imax [1] [%] | IC50 [2] [µM] | Imax [6] [%] | IC50 [10] [µM] | IC50 [15] [µM] | SMILES | Activity (Mus musculus [3]) | inhibition in vivo at 100 mg/kg (Mus musculus [4]) [%] | inhibition in vivo at 50 mg/kg (Mus musculus [5]) [%] | inhibition (Platelet [7]) | inhibition in vivo at 100 mg/kg (Rattus norvegicus [8]) [%] | Activity (Mus musculus [9]) | inhibition in vivo at 25 mg/kg (Mus musculus [11]) [%] | inhibition in vivo at 50 mg/kg (Rattus norvegicus [12]) [%] | inhibition in vivo at 10 mg/kg (Rattus norvegicus [13]) [%] | inhibition (Platelet [14]) | inhibition in vivo at 25 mg/kg (Rattus norvegicus [16]) [%]
8 | 28.7 | 46 | 50.7 | > 500 |  | CN(C)c1nc(Nc2ccccc2)c2c(n1)-c1ccccc1CC2 | Non-toxic | 64 | 51 | inactive | 0 | Non-toxic | 0 |  |  |  | 
9 | 50.5 | 89 | 38.6 | 311 | 205 | Nc1nc(Nc2ccccc2)c2c(n1)-c1ccccc1CC2 |  | 15 |  |  | 54 |  |  | 53 |  |  | 0
10 |  | 68 |  | 336 | 385 | Nc1nc2c(c(N3CCCCC3)n1)CCc1ccccc1-2 |  | 0 |  |  | 31 |  |  | 41 |  |  | 0
